How the values were obtained:
[1] = target: T1, Orexin/Hypocretin receptor type 1 (Homo sapiens, UniProt O43613); assay: Antagonist activity at human OX1R expressed in CHOK1 cells assessed as inhibition of orexin A-induced intracellular Ca2+ release preincubated for 15 mins followed by orexin A addition by Fura 2-AM dye based fluorescence assay; assay type: functional, cell-based
T1 sequence (O43613 whole entry): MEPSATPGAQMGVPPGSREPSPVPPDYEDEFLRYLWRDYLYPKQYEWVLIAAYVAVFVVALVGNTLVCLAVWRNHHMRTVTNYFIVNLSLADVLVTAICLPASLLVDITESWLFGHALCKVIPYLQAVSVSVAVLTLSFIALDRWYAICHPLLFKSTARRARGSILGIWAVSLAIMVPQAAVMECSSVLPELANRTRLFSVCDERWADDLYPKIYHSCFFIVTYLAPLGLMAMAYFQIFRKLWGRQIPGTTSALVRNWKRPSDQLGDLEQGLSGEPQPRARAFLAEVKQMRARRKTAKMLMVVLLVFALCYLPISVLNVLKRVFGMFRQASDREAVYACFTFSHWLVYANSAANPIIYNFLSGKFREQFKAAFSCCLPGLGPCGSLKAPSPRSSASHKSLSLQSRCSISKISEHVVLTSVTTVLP

[2] = target: T2, Orexin receptor type 2 (Homo sapiens, UniProt O43614); assay: Antagonist activity at human OX2R expressed in CHOK1 cells assessed as inhibition of orexin A-induced intracellular Ca2+ release preincubated for 15 mins followed by orexin A addition by Fura 2-AM dye based fluorescence assay; assay type: functional, cell-based
T2 sequence (O43614 whole entry): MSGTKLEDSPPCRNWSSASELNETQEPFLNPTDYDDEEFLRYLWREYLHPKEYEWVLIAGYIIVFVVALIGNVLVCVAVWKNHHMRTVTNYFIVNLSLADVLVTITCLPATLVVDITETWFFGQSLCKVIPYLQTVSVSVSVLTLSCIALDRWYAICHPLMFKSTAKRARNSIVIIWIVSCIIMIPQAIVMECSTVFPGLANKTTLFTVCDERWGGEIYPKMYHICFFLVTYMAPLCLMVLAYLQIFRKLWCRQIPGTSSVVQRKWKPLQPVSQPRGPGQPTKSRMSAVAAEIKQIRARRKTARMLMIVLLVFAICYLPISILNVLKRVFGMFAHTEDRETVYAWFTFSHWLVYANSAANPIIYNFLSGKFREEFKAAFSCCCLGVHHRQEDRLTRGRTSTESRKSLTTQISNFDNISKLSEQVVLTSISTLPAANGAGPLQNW

SMILES	Ki [1] [nM]	Ki [2] [nM]
COc1ccc2c3c1O[C@H]1[C@@H](N(C)C(=O)/C=C/c4ccoc4)CC[C@H]4[C@@H](C2)N(S(=O)(=O)c2ccccc2)CC[C@@]341	187	> 10000
COc1ccc2c3c1O[C@H]1[C@@H](N(C)C(=O)/C=C/c4ccoc4)CC[C@@]4(O)[C@@H](C2)N(S(=O)(=O)c2ccccc2)CC[C@]314		> 10000
COc1ccc2c3c1O[C@H]1[C@H](N(C)C(=O)/C=C/c4ccoc4)CC=C4[C@@H](C2)N(S(=O)(=O)c2ccccc2)CC[C@]431	2.06	> 10000
COc1ccc2c3c1O[C@H]1[C@@H](N(C)C(=O)/C=C/c4ccoc4)CC=C4[C@@H](C2)N(S(=O)(=O)c2ccccc2)CC[C@]431	17.8	123
COc1ccc2c3c1O[C@H]1[C@H](N(C)C(=O)/C=C/c4ccoc4)CC[C@@]4(O)[C@@H](C2)N(S(=O)(=O)c2ccccc2)CC[C@]314		> 10000
COc1ccc2c3c1O[C@H]1[C@H](N(C)C(=O)/C=C/c4ccoc4)CC[C@H]4[C@@H](C2)N(S(=O)(=O)c2ccccc2)CC[C@@]341	1.97	> 10000

Reference: ChEMBL document CHEMBL4184213, “Essential structure of orexin 1 receptor antagonist YNT-707, Part II: Drastic effect of the 14-hydroxy group on the orexin 1 receptor antagonistic activity” (Bioorg Med Chem Lett, 2018)
